The source of these data is patent publication US11369605B2, “Optically active azabicyclo ring derivative” (priority 2018, dated 2022).

Series [1] relates to RS4; 11 cells. The series can be described thus: Test 2: inhibition of cell proliferation, RS4; 11. It counts as cell-based. The following applies: summary of Test 2 (RS4; 11 and MOLM-13). As for the experimental part:
Test for Evaluating the Inhibition of Cell Proliferation RS4; 11 cells were obtained from American Type Culture Collection (ATCC). […] MOLM-13 cells were separately obtained from DSMZ (Deutsche Sammlung von Mikroorganismen und Zeilkulturen GmbH). […] The cells were plated to a 96-well plate in 2000 cells/well, each test compound was added thereto to adjust the final concentration of DMSO to 0.1% of DMSO, and the cells were cultured for 7 days. After the cultivation, the cell viability was calculated with PrestoBlue™ Cell Viability Reagent (Invitrogen, A13261).

Series [2] addresses hERG (human Ether-a-go-go Related Gene) (Homo sapiens (Human), UniProt Q12809). The series can be described thus: Test 4: hERG inhibition (QPatch HT). To be noted: for gap between RS4; 11 proliferation IC50 and hERG current IC50: summary of Test 4 table. On the technique in general: hERG is a cardiac potassium channel; its block is linked to QT prolongation.
In series [3] the target is Menin-MLL binding (His-Menin1-615, MLL1-172-FLAG) (Homo sapiens (Human), UniProt O00255). Put plainly: Test 1: inhibition of the Menin-MLL binding (HTRF). To be noted: summary of Test 1 table. As for the experimental part: Test 1: Test for Evaluating the Inbinition of the Menin-MLL Binding
Sequence of Menin-MLL binding (His-Menin1-615, MLL1-172-FLAG) (O00255 other isoform, or with tags, fused parts or gaps): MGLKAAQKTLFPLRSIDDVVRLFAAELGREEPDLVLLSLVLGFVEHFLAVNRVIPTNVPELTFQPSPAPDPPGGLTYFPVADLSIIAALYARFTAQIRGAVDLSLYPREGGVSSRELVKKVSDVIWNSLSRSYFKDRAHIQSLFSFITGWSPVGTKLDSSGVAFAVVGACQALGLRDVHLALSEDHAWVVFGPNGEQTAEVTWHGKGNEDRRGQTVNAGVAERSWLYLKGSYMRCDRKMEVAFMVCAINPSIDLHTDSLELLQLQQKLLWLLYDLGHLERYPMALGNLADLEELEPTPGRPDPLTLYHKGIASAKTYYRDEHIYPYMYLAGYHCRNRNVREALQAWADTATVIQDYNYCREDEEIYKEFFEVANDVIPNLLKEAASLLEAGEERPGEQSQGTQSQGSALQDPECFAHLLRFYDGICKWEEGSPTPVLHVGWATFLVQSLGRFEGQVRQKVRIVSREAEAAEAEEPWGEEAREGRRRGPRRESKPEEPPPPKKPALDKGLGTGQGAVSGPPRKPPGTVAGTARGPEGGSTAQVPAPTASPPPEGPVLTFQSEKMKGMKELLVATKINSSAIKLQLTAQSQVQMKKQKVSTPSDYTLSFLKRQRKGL
After the incubation, the signal was detected with RUBYstar (BMG LABTECH).

The subject of series [4] is MEIS1 mRNA in MV4; 11 cells. Put plainly: Test 3: inhibition of mRNA transcription, MEIS1. It counts as cell-based. To be noted: MEIS1 and HOXA9, MV4, summary of Test 3. As for the experimental part: Test 3: Test for the Inhibition of mRNA Transcription with Test Compounds
MV4; 11 cells were obtained from American Type Culture Collection (ATCC). […] After the incubation, the total RNA was extracted from the cells with RNeasy™ Mini Kit (QIAGEN, 74106), and cDNA was synthesized with Superscript™ VILO™ cDNA Synthesis Kit (Invitrogen, #11754250). By using TaqMan™ Gene Expression Master Mix (Applied Biosystems, 4369016) and TaqMan™ probe (Applied Biosystems), the expression level of mRNA was quantified from the obtained cDNA with 7900HT (Applied Biosystems). The expression level of each obtained gene (MEIS1 and HOXA9) was fitted with the expression level of mRNA of GAPDH.

Sequence of hERG (human Ether-a-go-go Related Gene) (Q12809 whole entry): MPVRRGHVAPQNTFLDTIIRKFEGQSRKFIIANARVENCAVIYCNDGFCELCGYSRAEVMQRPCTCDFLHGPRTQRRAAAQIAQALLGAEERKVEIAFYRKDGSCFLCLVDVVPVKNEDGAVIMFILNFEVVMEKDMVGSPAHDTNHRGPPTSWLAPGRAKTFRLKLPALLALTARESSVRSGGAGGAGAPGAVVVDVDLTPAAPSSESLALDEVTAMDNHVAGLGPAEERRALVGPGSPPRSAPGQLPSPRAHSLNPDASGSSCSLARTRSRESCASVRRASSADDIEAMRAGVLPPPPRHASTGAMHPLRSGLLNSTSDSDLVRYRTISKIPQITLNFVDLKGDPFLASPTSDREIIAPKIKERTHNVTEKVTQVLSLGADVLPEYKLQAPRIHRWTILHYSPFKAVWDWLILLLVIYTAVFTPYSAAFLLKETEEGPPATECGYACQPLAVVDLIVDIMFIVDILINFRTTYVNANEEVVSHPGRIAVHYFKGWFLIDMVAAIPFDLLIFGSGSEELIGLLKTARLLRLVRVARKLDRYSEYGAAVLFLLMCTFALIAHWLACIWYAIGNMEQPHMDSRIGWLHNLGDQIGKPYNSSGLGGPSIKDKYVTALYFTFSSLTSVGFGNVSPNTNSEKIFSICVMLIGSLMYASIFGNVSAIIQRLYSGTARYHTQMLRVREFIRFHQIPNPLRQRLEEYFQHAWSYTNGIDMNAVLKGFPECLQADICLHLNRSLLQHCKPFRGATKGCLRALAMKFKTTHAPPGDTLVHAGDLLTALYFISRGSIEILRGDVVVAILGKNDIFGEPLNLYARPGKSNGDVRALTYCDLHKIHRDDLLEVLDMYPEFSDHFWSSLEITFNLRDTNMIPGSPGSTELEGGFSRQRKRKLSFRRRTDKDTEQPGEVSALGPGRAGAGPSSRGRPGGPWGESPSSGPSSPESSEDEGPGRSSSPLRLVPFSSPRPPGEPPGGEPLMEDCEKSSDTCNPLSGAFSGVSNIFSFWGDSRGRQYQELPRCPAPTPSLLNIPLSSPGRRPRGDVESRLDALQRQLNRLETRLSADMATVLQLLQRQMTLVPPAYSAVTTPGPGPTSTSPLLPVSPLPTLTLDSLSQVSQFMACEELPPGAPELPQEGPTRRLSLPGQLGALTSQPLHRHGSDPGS

Regarding `CC(C)N(C(=O)c1cc(F)ccc1Oc1cncnc1N1CC2(CCN(C(=O)[C@H]3N[C@H]4CC[C@@H]3[C@H](F)[C@@H]4CC3CC3)CC2)C1)C(C)C` [Example 19, 2-[(4-{7-[(1S,3S,4S,5R,6R)-6-(cyclopropylmethyl)-5-fluoro-2-azabicyclo[2.2.2]octane-3-carbonyl]-2,7-diazaspiro[3.5]nonan-2-yl}pyrimidin-5-yl)oxy]-5-fluoro-N,N-di(propan-2-yl)benzamide], in series [1], the “cell proliferation inhibition activity (in words)” value is given as “potent”. Besides, the “hERG/RS4; 11” value in series [2] (hERG IC50 divided by RS4, 11 proliferation IC50) is recorded as more than 690. Further, the “gap between RS4; 11 proliferation IC50 and hERG current IC50” value (from here on “gap between RS4”) in series [2] was “more than 100 fold”.

On to `CC(C)N(C(=O)c1cc(F)ccc1Oc1cncnc1N1CC2(CCN(C(=O)[C@H]3N[C@H]4CC[C@@H]3C[C@H]4CC3CC3)CC2)C1)C(C)C` [Example 4, 2-[(4-{7-[(1S,3S,4R,6R)-6-(cyclopropylmethyl)-2-azabicyclo[2.2.2]octane-3-carbonyl]-2,7-diazaspiro[3.5]nonan-2-yl}pyrimidin-5-yl)oxy]-5-fluoro-N,N-di(propan-2-yl)benzamide], for which, in series [3], the “Menin-MLL binding inhibition activity (in words)” value is given as “potent”. In series [1], the “cell proliferation inhibition activity (in words)” value is “potent”. Further, in series [4], the “mRNA transcription inhibition activity (in words)” value is on record as “showed the mRNA transcription inhibition activity”. Also, the “gap between RS4” value in series [2] is given as “more than 100 fold”.

On to “2-[(4-{6-[(1R,3S,4S)-2-azabicyclo[2.2.1]heptane-3-carbonyl]-2,6-diazaspiro[3.3]heptan-2-yl}pyrimidin-5-yl)oxy]-5-fluoro-N,N-di(propan-2-yl)benzamide [Example 15]”, for which the “cell proliferation inhibition activity (in words)” value in series [1] is “potent”. The IC50 – broadly, the concentration that gives 50% inhibition – in series [2] (read-out: hERG inhibition IC50, CHO cell strain stably expressing hERG) is more than 100 µM.

Take `C=C1C[C@H]2CC[C@@H]1N[C@@H]2C(=O)N1CC2(C1)CN(c1ncncc1Oc1ccc(F)cc1C(=O)N(C(C)C)C(C)C)C2` [Example 9, 5-fluoro-2-[(4-{6-[(1S,3S,4R)-6-methylidene-2-azabicyclo[2.2.2]octane-3-carbonyl]-2,6-diazaspiro[3.3]heptan-2-yl}pyrimidin-5-yl)oxy]-N,N-di(propan-2-yl)benzamide]: the “gap between RS4” value in series [2] is “more than 100 fold”.

Take `C=C1C[C@H]2CC[C@@H]1N[C@@H]2C(=O)N1CCC2(CC1)CN(c1ncncc1Oc1ccc(F)cc1C(=O)N(C(C)C)C(C)C)C2` [Example 8, 5-fluoro-2-[(4-{7-[(1S,3S,4R)-6-methylidene-2-azabicyclo[2.2.2]octane-3-carbonyl]-2,7-diazaspiro[3.5]nonan-2-yl}pyrimidin-5-yl)oxy]-N,N-di(propan-2-yl)benzamide]: in series [2], the “gap between RS4” value is reported as “more than 100 fold”.

Consider `CC(C)N(C(=O)c1cc(F)ccc1Oc1cncnc1N1CC2(CCN(C(=O)[C@H]3N[C@H]4CC[C@@H]3C(=O)C4)CC2)C1)C(C)C` [Example 12, 5-fluoro-2-[(4-{7-[(1S,3S,4S)-5-oxo-2-azabicyclo[2.2.2]octane-3-carbonyl]-2,7-diazaspiro[3.5]nonan-2-yl}pyrimidin-5-yl)oxy]-N,N-di(propan-2-yl)benzamide], for which the “gap between RS4” value in series [2] was “more than 100 fold”.

On to `C=C1C[C@@H]2CC[C@H]1[C@@H](C(=O)N1CCC3(CC1)CN(c1ncncc1Oc1ccc(F)cc1C(=O)N(C(C)C)C(C)C)C3)N2` [Example 6, 5-Fluoro-2-[(4-{7-[(1S,3S,4R)-5-methylidene-2-azabicyclo[2.2.2]octane-3-carbonyl]-2,7-diazaspiro[3.5]nonan-2-yl}pyrimidin-5-yl)oxy]-N,N-di(propan-2-yl)benzamide], for which the “mRNA transcription inhibition activity (in words)” value in series [4] is recorded as “showed the mRNA transcription inhibition activity”.
